What all share (details): at 10 µM
The target of experiment [1] is T1, Serine/threonine-protein kinase Nek9 (Homo sapiens) (UniProt Q8TD19).
T1 sequence (whole entry): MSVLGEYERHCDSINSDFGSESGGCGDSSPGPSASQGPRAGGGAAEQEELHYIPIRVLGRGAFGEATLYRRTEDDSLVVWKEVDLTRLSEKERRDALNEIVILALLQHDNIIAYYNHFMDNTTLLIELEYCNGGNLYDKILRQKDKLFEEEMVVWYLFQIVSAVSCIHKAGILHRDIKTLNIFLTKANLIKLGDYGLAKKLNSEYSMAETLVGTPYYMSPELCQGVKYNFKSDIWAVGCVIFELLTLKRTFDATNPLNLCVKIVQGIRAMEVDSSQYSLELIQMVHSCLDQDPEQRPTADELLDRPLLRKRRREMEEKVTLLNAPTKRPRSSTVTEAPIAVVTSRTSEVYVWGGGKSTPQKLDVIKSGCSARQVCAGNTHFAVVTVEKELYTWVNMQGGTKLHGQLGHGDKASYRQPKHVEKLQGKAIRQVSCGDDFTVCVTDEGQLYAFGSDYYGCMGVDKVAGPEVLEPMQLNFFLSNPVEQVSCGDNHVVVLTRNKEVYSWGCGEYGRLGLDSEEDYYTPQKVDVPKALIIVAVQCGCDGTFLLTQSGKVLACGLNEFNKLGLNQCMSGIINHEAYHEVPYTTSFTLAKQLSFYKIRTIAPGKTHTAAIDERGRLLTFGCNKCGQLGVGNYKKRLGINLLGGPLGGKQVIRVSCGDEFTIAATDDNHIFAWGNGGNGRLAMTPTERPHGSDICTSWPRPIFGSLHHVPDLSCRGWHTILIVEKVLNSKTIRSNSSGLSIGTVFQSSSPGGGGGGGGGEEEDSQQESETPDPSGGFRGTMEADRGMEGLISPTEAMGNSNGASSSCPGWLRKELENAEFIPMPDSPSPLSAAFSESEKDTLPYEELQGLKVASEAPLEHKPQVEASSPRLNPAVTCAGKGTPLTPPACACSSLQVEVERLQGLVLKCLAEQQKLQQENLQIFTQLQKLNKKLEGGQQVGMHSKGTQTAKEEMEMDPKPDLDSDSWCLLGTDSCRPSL

The target in experiment [2] is T2, Mitogen-activated protein kinase 13 (Homo sapiens) (UniProt O15264).
T2 sequence (whole entry): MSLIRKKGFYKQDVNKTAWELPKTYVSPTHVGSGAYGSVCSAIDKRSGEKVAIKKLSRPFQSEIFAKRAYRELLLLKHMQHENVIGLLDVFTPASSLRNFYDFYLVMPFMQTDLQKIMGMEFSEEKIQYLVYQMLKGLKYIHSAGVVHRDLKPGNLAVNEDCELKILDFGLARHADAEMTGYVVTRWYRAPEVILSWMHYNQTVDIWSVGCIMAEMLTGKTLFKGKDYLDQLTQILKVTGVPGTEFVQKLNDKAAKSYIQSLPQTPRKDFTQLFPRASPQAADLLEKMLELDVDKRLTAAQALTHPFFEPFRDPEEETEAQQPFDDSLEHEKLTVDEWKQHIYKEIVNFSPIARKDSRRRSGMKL
Put plainly: Selectivity interaction (KinomeScan (DiscoverX)) EUB0000092b MAPK13.

Experiment [3] relates to T3, Receptor-type tyrosine-protein kinase FLT3 (Homo sapiens), P36888 [D835Y].
T3 sequence (whole entry): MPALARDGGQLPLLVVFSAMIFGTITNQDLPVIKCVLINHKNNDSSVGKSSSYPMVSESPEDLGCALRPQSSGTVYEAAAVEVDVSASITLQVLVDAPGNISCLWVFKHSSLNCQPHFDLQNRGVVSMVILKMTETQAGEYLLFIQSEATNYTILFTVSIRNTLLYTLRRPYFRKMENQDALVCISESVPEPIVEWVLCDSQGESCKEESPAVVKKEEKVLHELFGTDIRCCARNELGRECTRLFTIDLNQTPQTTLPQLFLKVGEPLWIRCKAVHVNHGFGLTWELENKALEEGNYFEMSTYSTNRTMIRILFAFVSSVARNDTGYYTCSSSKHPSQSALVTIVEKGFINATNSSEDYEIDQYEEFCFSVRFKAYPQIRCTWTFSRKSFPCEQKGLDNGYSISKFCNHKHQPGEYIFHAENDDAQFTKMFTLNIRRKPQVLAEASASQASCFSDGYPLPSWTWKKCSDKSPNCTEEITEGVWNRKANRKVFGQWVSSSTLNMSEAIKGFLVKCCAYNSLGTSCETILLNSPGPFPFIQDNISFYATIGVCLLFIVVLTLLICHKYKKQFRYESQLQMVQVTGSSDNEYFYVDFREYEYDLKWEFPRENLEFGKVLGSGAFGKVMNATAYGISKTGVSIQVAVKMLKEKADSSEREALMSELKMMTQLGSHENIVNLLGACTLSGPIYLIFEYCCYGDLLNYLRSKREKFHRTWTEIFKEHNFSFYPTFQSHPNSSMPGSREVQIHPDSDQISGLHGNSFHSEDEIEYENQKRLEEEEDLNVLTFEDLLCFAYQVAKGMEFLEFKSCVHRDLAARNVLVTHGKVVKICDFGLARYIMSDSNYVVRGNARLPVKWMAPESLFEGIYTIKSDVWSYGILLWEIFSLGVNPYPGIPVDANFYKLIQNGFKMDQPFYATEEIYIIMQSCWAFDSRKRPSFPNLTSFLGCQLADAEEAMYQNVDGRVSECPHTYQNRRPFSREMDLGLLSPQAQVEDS
In words: Selectivity interaction (Kinase panel (Z-LYTE Assay)) EUB0001632a FLT3.

For experiment [4], the target named is Serine/threonine-protein kinase NIM1 (Homo sapiens, UniProt Q8IY84). Put plainly: Selectivity interaction (KinomeScan (DiscoverX)) EUB0000595a NIM1K.

These results are taken from ChEMBL document CHEMBL5465560, “Selectivity Literature for EUbOPEN Chemogenomic Library” (2024).

Each structure is given as a SMILES string.

Chain of Serine/threonine-protein kinase NIM1 (Q8IY84 whole entry): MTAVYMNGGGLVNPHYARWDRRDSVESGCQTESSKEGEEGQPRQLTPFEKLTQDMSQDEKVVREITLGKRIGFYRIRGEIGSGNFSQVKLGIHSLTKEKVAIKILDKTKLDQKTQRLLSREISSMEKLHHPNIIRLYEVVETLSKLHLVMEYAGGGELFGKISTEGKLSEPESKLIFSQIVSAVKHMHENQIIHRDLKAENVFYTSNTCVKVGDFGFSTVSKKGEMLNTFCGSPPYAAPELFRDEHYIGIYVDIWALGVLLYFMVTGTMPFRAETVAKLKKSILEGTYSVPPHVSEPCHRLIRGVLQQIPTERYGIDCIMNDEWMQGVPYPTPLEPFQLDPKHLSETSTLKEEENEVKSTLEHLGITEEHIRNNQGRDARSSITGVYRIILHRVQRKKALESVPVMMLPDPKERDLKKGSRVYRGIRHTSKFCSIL

As to `Cc1cc([C@@H](C)Nc2ccccc2C(=O)O)c2nc(N3CCOCC3)cc(=O)n2c1` [AZD-6482], the % of control in experiment [1] is 100%. Consider `CCC(=O)N1CCN(c2ccc(-n3c(=O)ccc4cnc5ccc(-c6cnc7ccccc7c6)cc5c43)cc2C(F)(F)F)CC1`, for which the % of control in experiment [2] was determined as 39%. With `Cn1cc(-n2cnc3c(NCc4nc5cc(Cl)c(Cl)cc5[nH]4)nc(N4CCOCC4)nc32)cn1`, in experiment [3], the % of control turned out to be 33.4%. The molecule `COCC(=O)NC/C=C/c1ccc2ncnc(Nc3ccc(Oc4ccc(C)nc4)c(C)c3)c2c1` [CP-724714] gave a % of control in experiment [4] of 87%.
